Laboratory results as given in PubChem BioAssay AID330 (DTP/NCI, 2004).
Where “and” joins values, the source holds several entries; their conditions need not be identical. Equal values may be shown once. Inconclusive results and toxic doses are left out. How the source made its calls: active means survival T/C of 150% or more; inactive means T/C below 125% in these data.

System: P388 leukemia ip, CD2F1 mice, survival T/C
Test: NCI In Vivo Anticancer Drug Screen. Data for tumor model P388 Leukemia (intraperitoneal) in CD2F1 (CDF1) mice
Conditions: endpoint: median survival time, higher = longer survival
Method in brief: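 Mice carrying the transplanted tumor received test compound or vehicle. Survival was recorded in each group, and the value is the treated-group measurement divided by that of the vehicle-treated control group.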

[1] = dose: 50.0 mg/kg/injection, schedule: Q01DX009 (ip), vehicle: saline with Tween-80
[2] = dose: 100.0 mg/kg/injection, schedule: Q01DX009 (ip), vehicle: saline with Tween-80

Measured: T/C

O=C([O-])[O-].O=S(=O)(O)O.[Co+3].[NH-]CC[NH-].[NH-]CC[NH-]
inactive: dose: 50.0 mg/kg/injection, schedule: Q01DX009 (ip), vehicle: saline 90 % of control | dose: 100.0 mg/kg/injection, schedule: Q01DX009 (ip), vehicle: saline 93 % of control | dose: 200.0 mg/kg/injection, schedule: Q01DX009 (ip), vehicle: saline 94 % of control

O=CC(O)C(O)C(O)C(O)CO (stereo unspecified)
inactive: dose: 12.5 mg/kg/injection, schedule: Q04DX003 (ip), vehicle: saline 108 % of control | dose: 25.0 mg/kg/injection, schedule: Q04DX003 (ip), vehicle: saline 100 % of control | dose: 50.0 mg/kg/injection, schedule: Q04DX003 (ip), vehicle: saline 108 % of control | dose: 60.0 mg/kg/injection, schedule: Q01DX005 (ip), vehicle: saline 103 % of control | dose: 120.0 mg/kg/injection, schedule: Q01DX005 (ip), vehicle: saline 105 % of control | dose: 240.0 mg/kg/injection, schedule: Q01DX005 (ip), vehicle: saline 102 % of control | dose: 1.0 % in 0.5 ml injection vol, schedule: Q01DX009 (ip), vehicle: water 100 % of control | dose: 2.0 % in 0.5 ml injection vol, schedule: Q01DX009 (ip), vehicle: water 103 % of control | dose: 4.0 % in 0.5 ml injection vol, schedule: Q01DX009 (ip), vehicle: water 101 % of control | dose: 8.0 % in 0.5 ml injection vol, schedule: Q01DX009 (ip), vehicle: water 100 % of control and 105 % of control | dose: 16.0 % in 0.5 ml injection vol, schedule: Q01DX009 (ip), vehicle: water 103 % of control and 112 % of control | dose: 32.0 % in 0.5 ml injection vol, schedule: Q01DX009 (ip), vehicle: water 98 % of control and 99 % of control

Oc1[nH]c2ccccc2c1N=NC(=S)NC1C2CC3CC(C2)CC1C3 (stereo unspecified)
inactive: dose: 50.0 mg/kg/injection, schedule: Q01DX005 (ip), vehicle: saline with Tween-80 103 % of control | dose: 100.0 mg/kg/injection, schedule: Q01DX005 (ip), vehicle: saline with Tween-80 100 % of control | dose: 200.0 mg/kg/injection, schedule: Q01DX005 (ip), vehicle: saline with Tween-80 103 % of control

CCOC(=O)/C(=C\Nc1cccc(OCc2ccccc2)c1)NC(=O)c1ccccc1
inactive: dose: 50.0 mg/kg/injection, schedule: Q01DX009 (ip), vehicle: Klucel (hydroxypropylcellulose) (HPC) 87 % of control | dose: 100.0 mg/kg/injection, schedule: Q01DX009 (ip), vehicle: Klucel (hydroxypropylcellulose) (HPC) 88 % of control | dose: 200.0 mg/kg/injection, schedule: Q01DX009 (ip), vehicle: Klucel (hydroxypropylcellulose) (HPC) 86 % of control and 96 % of control | dose: 400.0 mg/kg/injection, schedule: Q01DX009 (ip), vehicle: Klucel (hydroxypropylcellulose) (HPC) 97 % of control

c1ccc2nc(N3CCCC3)c(N3CCCCCC3)nc2c1
inactive: dose: 50.0 mg/kg/injection, schedule: Q01DX005 (ip), vehicle: Klucel (hydroxypropylcellulose) (HPC) 100 % of control | dose: 100.0 mg/kg/injection, schedule: Q01DX005 (ip), vehicle: Klucel (hydroxypropylcellulose) (HPC) 100 % of control | dose: 200.0 mg/kg/injection, schedule: Q01DX005 (ip), vehicle: Klucel (hydroxypropylcellulose) (HPC) 107 % of control

O=C(N/N=C/c1ccccc1O)C(F)(F)F
inactive: [1] 86 % of control | [2] 86 % of control

Cc1ccc(C)c2c1C(O)(C#Cc1ccccc1)c1ccccc1C2(O)C#Cc1ccccc1 (stereo unspecified)
inactive: [1] 86 % of control | [2] 86 % of control

CC(C)(C)C1CCC=CC(=O)C1 (stereo unspecified)
inactive: dose: 100.0 mg/kg/injection, schedule: Q04DX003 (ip), vehicle: Klucel (hydroxypropylcellulose) (HPC) 105 % of control | dose: 200.0 mg/kg/injection, schedule: Q04DX003 (ip), vehicle: Klucel (hydroxypropylcellulose) (HPC) 113 % of control
